Test results reported in PubChem BioAssay AID2060895 (Molecular Pharmacology Branch, DTP, NCI, 2025).

System: PDC 899932-113-R3-J6 complex spheroid viability
Test: Anticancer human tumor 899932-113-R3-J6-PDC patient-derived melanoma cell line growth inhibition [RAS]
Conditions: for IC50: curve of first compound; for viability, T/C: stronger effect = lower value
In short: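 Agents were tested in combination matrices in half-log decrements from a top concentration at or near clinical Cmax (10 microM if undetermined). Targets were multi-cell spheroids of tumour lines plus HUVEC and MSC stromal cells.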

[1] = second compound 0.000949 µM, first compound 0.0316 µM
[2] = second compound 0.000949 µM, first compound 0.1 µM
[3] = second compound 0.000949 µM, first compound 0.316 µM
[4] = second compound 0.000949 µM, first compound 1 µM
[5] = second compound 0.003 µM, first compound 0.0316 µM
[6] = second compound 0.003 µM, first compound 0.1 µM
[7] = second compound 0.003 µM, first compound 0.316 µM
[8] = second compound 0.003 µM, first compound 1 µM
[9] = second compound 0.00949 µM, first compound 0.0316 µM
[10] = second compound 0.00949 µM, first compound 0.1 µM
[11] = second compound 0.00949 µM, first compound 0.316 µM
[12] = second compound 0.00949 µM, first compound 1 µM
[13] = second compound 0.03 µM, first compound 0.0316 µM
[14] = second compound 0.03 µM, first compound 0.1 µM
[15] = second compound 0.03 µM, first compound 0.316 µM
[16] = second compound 0.03 µM, first compound 1 µM
[17] = second compound 0.0949 µM, first compound 0.0316 µM
[18] = second compound 0.0949 µM, first compound 0.1 µM
[19] = second compound 0.0949 µM, first compound 0.316 µM
[20] = second compound 0.0949 µM, first compound 1 µM
[21] = second compound 0.3 µM, first compound 0.0316 µM
[22] = second compound 0.3 µM, first compound 0.1 µM
[23] = second compound 0.3 µM, first compound 0.316 µM
[24] = second compound 0.3 µM, first compound 1 µM
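For viability, T/C in this document: spheroids exposed to agents for seven days before readout; 100% = DMSO vehicle control wells.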

CC(=O)OC12COC1CC(O)C1(C)C(=O)C(O)C3=C(C)C(OC(=O)C(O)C(NC(=O)OC(C)(C)C)c4ccccc4)CC(O)(C(OC(=O)c4ccccc4)C21)C3(C)C (centres undefined) + CCn1c(-c2cccnc2C(C)OC)c2c3cc(ccc31)N1CCOC(CC(NC(=O)C(C(C)C)N(C)C(=O)C3(F)CCN(C(=O)C#CC(C)(C)N(C)C)CC3)C(=O)N3CCCC(N3)C(=O)OCC(C)(C)C2)C1
IC50 (second compound 0.000949 µM): < 31.6 nM
IC50 (second compound 0.003 µM): < 31.6 nM
IC50 (second compound 0.00949 µM): < 31.6 nM
IC50 (second compound 0.03 µM): < 31.6 nM
IC50 (second compound 0.0949 µM): < 31.6 nM
IC50 (second compound 0.3 µM): < 31.6 nM
viability, T/C [1]: 31.4%
viability, T/C [2]: 34.3%
viability, T/C [3]: 33%
viability, T/C [4]: 45.6%
viability, T/C (second compound 0.000949 µM, first compound 3.16 µM): 60.8%
viability, T/C (second compound 0.000949 µM, first compound 10 µM): 70.1%
viability, T/C [5]: 29.2%
viability, T/C [6]: 37.1%
viability, T/C [7]: 36.8%
viability, T/C [8]: 39.7%
viability, T/C (second compound 0.003 µM, first compound 3.16 µM): 58.7%
viability, T/C (second compound 0.003 µM, first compound 10 µM): 68.9%
viability, T/C [9]: 33.8%
viability, T/C [10]: 36.6%
viability, T/C [11]: 35.1%
viability, T/C [12]: 48.4%
viability, T/C (second compound 0.00949 µM, first compound 3.16 µM): 61%
viability, T/C (second compound 0.00949 µM, first compound 10 µM): 61%
viability, T/C [13]: 34.9%
viability, T/C [14]: 38%
viability, T/C [15]: 32.9%
viability, T/C [16]: 41.7%
viability, T/C (second compound 0.03 µM, first compound 3.16 µM): 67.3%
viability, T/C (second compound 0.03 µM, first compound 10 µM): 67.4%
viability, T/C [17]: 34.8%
viability, T/C [18]: 38.4%
viability, T/C [19]: 37.3%
viability, T/C [20]: 52.1%
viability, T/C (second compound 0.0949 µM, first compound 3.16 µM): 59.2%
viability, T/C (second compound 0.0949 µM, first compound 10 µM): 65.5%
viability, T/C [21]: 28.9%
viability, T/C [22]: 39.4%
viability, T/C [23]: 40.8%
viability, T/C [24]: 44.5%
viability, T/C (second compound 0.3 µM, first compound 3.16 µM): 64.3%
viability, T/C (second compound 0.3 µM, first compound 10 µM): 63.1%

Nc1ccn(C2OC(CO)C(O)C2(F)F)c(=O)n1 (centres undefined) + CCn1c(-c2cccnc2C(C)OC)c2c3cc(ccc31)N1CCOC(CC(NC(=O)C(C(C)C)N(C)C(=O)C3(F)CCN(C(=O)C#CC(C)(C)N(C)C)CC3)C(=O)N3CCCC(N3)C(=O)OCC(C)(C)C2)C1
IC50 (second compound 0.000949 µM): 19.8 nM
IC50 (second compound 0.003 µM): 20.7 nM
IC50 (second compound 0.00949 µM): 20.5 nM
IC50 (second compound 0.03 µM): 19.6 nM
IC50 (second compound 0.0949 µM): 20.9 nM
IC50 (second compound 0.3 µM): 18.3 nM
viability, T/C (second compound 0.000949 µM, first compound 0.00316 µM): 103%
viability, T/C (second compound 0.000949 µM, first compound 0.01 µM): 71.2%
viability, T/C [1]: 35.9%
viability, T/C [2]: 20.9%
viability, T/C [3]: 17.4%
viability, T/C [4]: 19.2%
viability, T/C (second compound 0.003 µM, first compound 0.00316 µM): 99.8%
viability, T/C (second compound 0.003 µM, first compound 0.01 µM): 74.8%
viability, T/C [5]: 36.3%
viability, T/C [6]: 17.1%
viability, T/C [7]: 15.1%
viability, T/C [8]: 17.8%
viability, T/C (second compound 0.00949 µM, first compound 0.00316 µM): 103%
viability, T/C (second compound 0.00949 µM, first compound 0.01 µM): 73.7%
viability, T/C [9]: 36.4%
viability, T/C [10]: 19.8%
viability, T/C [11]: 16.1%
viability, T/C [12]: 20.6%
viability, T/C (second compound 0.03 µM, first compound 0.00316 µM): 101%
viability, T/C (second compound 0.03 µM, first compound 0.01 µM): 70.3%
viability, T/C [13]: 36.4%
viability, T/C [14]: 19.2%
viability, T/C [15]: 19%
viability, T/C [16]: 19.8%
viability, T/C (second compound 0.0949 µM, first compound 0.00316 µM): 95.2%
viability, T/C (second compound 0.0949 µM, first compound 0.01 µM): 73.4%
viability, T/C [17]: 37.4%
viability, T/C [18]: 20.5%
viability, T/C [19]: 19.3%
viability, T/C [20]: 20.1%
viability, T/C (second compound 0.3 µM, first compound 0.00316 µM): 84.4%
viability, T/C (second compound 0.3 µM, first compound 0.01 µM): 69.4%
viability, T/C [21]: 32.7%
viability, T/C [22]: 20.8%
viability, T/C [23]: 21.6%
viability, T/C [24]: 25.9%
